US8980872B2, “Agent for preventing and/or treating functional gastrointestinal disorder” (Aska Pharmaceutical Co., Ltd., priority 2008, dated 2015)

Test system: Water Avoidance Stress-Induced Hyperdefecation Model
Assay: Inhibition test of the number of stools using water avoidance stress-induced hyperdefecation model
Assay type: in vivo, rat
Method: Each of rats was freely allowed to have an enteral nutritional supplement, ELENTAL (0.25 g/mL; manufactured by Ajinomoto Co., Inc.) contained in a water-feeding bottle for seven days before a treatment with TNBS (2,4,6-trinitrobenzene sulfonic acid). The rats were fasted from the day before the TNBS administration day, and drinking water instead of ELENTAL was contained in the water-feeding bottle. On the day of the TNBS treatment (the rat: 8-week-old), 10 mL of physiological saline was intrarectally injected to the rat under anesthetization with ethyl ether to wash the enteral content. After the washing, the rat was allowed to stand longer than 2 hours, and 1 mL of 5 or 30 mg/head of TNBS in 40% ethanol/physiological saline (vehicle) was applied (injected) through the rectal injection under anesthetization with pentobarbital. Further, a silicone plug was inserted to the anus of the rat to stay the TNBS solution in the injection site, and the surrounding of the anus was fixed with an adhesive cloth elastic bandage (Elastopore). After about four hours of the TNBS treatment, the Elastopore and the silicone plug were removed from the rat, and 10 mL of physiological saline was intrarectally injected to the rat to discharge the enteral content. The animal was conventionally bled for four weeks from the TNBS treatment to recover from colitis. Moreover, to each of positive control rats, alosetron was orally administered singly before one hour of the stress loading.
Moreover, to each of positive control rats, alosetron (10 mg/kg) was orally administered singly before one hour of the water-stress loading. On the day of the measurement of the number of stools (the rat: 12-week-old), the animal was allowed to stand on a block (10 cm×5 cm×10 cm) installed in a water bath (about 50×30×40 cm, water depth: 5 cm) for one hour. However, each of animals on which no water environment stress was loaded (normal group) was allowed to stand in a waterless bath. The total number of stools excreted for the one hour after the animal was allowed to stand in the water bath was measured as the number of stools. Moreover, the nature of stools were compared and examined.

SMILES	number of stools excreted for one hour compared with the control (rifaximin 100 mg/kg orally for 9 days, rats recovered from TNBS colitis, p<0.001, Dunnett test)	dose dependence of the defecation inhibition effect (rifaximin 6.25, 25 and 100 mg/kg orally for 9 days)	nature of stool (rifaximin-administered group, orally for 9 days)	motility of the intestinal tract (rifaximin-administered group, concluded from number and nature of stools)	number of stools excreted for one hour compared with the control group (alosetron 10 mg/kg orally, single dose one hour before water-stress loading, p<0.001, t-test)
CO[C@H]1/C=C/O[C@@]2(C)Oc3c(C)c(O)c4c(O)c(c5c(nc6cc(C)ccn65)c4c3C2=O)NC(=O)/C(C)=C\C=C\[C@H](C)[C@H](O)[C@@H](C)[C@@H](O)[C@@H](C)[C@H](OC(C)=O)[C@@H]1C [rifaximin]	decreased the number of stools compared with the control	depended on the dose	normalization in the nature of stool was observed	the motility of the intestinal tract was improved	–
Cc1[nH]cnc1CN1CCc2c(c3ccccc3n2C)C1=O [alosetron]	–	–	–	–	showed a significantly effect compared with the control group
